For this assay, the system named is ⍺4β7. Put plainly: SPR: inhibition by linear peptides of soluble ⍺4β7 binding to a gp120 V2 (cV2 92TH023) surface. The settings on record: Fig 7C, 7E. The source says: To determine if this is the case, we employed an SPR -based assay. Biosensor surfaces were coated with either CD4 D1D2 or a 42 aa cyclic V2 peptide derived from the subtype E 92TH023 gp120 (cV2 92TH023). A third surface coated with MAdCAM-Ig was employed as a positive control. Soluble ⍺4β7 was passed over these surfaces. We then evaluated the capacity of staggered 15 aa peptides that span either CD4 D2 or gp120 V2 to inhibit this interaction (Fig 7A).
Fig 7 Reciprocal inhibition of gp120 V2 and CD4 binding to ⍺4β7 by D2 and V2 peptides. SPR measurements of soluble ⍺4β7 (analyte) binding to biosensor surfaces coated with CD4 D1D2, 92TH023 cyclic peptide, or MAdCAM-Ig in the absence or presence of either CD4 D2 or gp120 V2 peptides, as indicated. (A) List of overlapping 15 aa peptides corresponding to residues 157–187 of CD4 and residues 158–192 of gp120 V2 (subtype B consensus sequence). (B) Binding of ⍺4β7 to sCD4 D1D2 +/- CD4 D2 peptides. X-axis indicates ⍺4β7 mass bound (RU) at the end of the association phase. (C) Binding of ⍺4β7 to 92TH023 +/- gp120 V2 peptides. (D) Binding of ⍺4β7 to sCD4 D1D2 +/- gp120 V2 peptides. (E) Binding of ⍺4β7 to 92TH023 +/- CD4 D2 peptides. […]
Experiments were performed using a Biacore 3000 instrument (Cytiva Life Sciences) using CM4 or CM5 sensor chips. The data were evaluated using BIAevaluation 4.1.1 software (Cytiva Life Sciences). […]
In general terms: In SPR one partner is held on a chip, and binding of the other changes the refractive index at the surface.

Regarding “QKKVEFKIDIVVLA [CD4 P42, linear CD4 D2 peptide, residues 165-178, G β-strand]”, the “inhibition of gp120 binding to ⍺4β7 (in words)” value is given as “inhibits gp120 binding to ⍺4β7”.

For the origin of these results see PMC10732398 (PLOS Pathogens, 2023).
